In the NIST ThermoML archive (doi:10.1016/j.fluid.2006.05.027):

Assay: excess molar enthalpy (molar enthalpy of mixing); xn = mol fraction of the nth substance listed
Conditions: Fluid (supercritical or subcritical phases)

C=C(C)C1CC=C(C)CC1 (stereo not given) [1-methyl-4-(1-methylethenyl)cyclohexene] + O=C=O
excess molar enthalpy [kcal/mol]
Conditions | 308.15 K | 313.15 K | 323.15 K
7640 kPa, x2 = 0.105 | – | – | -0.125
7640 kPa, x2 = 0.129 | -0.105 | – | -0.151
7640 kPa, x2 = 0.152 | – | – | -0.188
7640 kPa, x2 = 0.175 | – | – | -0.21
7640 kPa, x2 = 0.196 | -0.174 | – | -0.241
7640 kPa, x2 = 0.218 | – | -0.233 | –
7640 kPa, x2 = 0.238 | -0.211 | -0.258 | -0.31
7640 kPa, x2 = 0.277 | -0.245 | -0.287 | -0.361
7640 kPa, x2 = 0.314 | -0.271 | – | –
7640 kPa, x2 = 0.349 | – | -0.379 | –
7640 kPa, x2 = 0.382 | -0.329 | – | -0.527
7640 kPa, x2 = 0.413 | -0.374 | -0.476 | -0.555
7640 kPa, x2 = 0.442 | -0.391 | – | -0.594
7640 kPa, x2 = 0.47 | – | -0.553 | -0.644
7640 kPa, x2 = 0.492 | – | -0.577 | –
7640 kPa, x2 = 0.497 | -0.435 | – | –
7640 kPa, x2 = 0.522 | -0.466 | – | -0.725
7640 kPa, x2 = 0.546 | – | -0.668 | –
7640 kPa, x2 = 0.569 | – | -0.697 | -0.779
7640 kPa, x2 = 0.591 | -0.533 | – | -0.799
7640 kPa, x2 = 0.596 | – | -0.755 | –
7640 kPa, x2 = 0.613 | – | – | -0.831
7640 kPa, x2 = 0.633 | – | – | -0.868
7640 kPa, x2 = 0.652 | -0.58 | -0.832 | -0.87
7640 kPa, x2 = 0.671 | – | – | -0.817
7640 kPa, x2 = 0.697 | -0.633 | – | -0.755
7640 kPa, x2 = 0.722 | – | – | -0.694
7640 kPa, x2 = 0.738 | – | -0.957 | -0.652
7640 kPa, x2 = 0.753 | – | – | -0.613
7640 kPa, x2 = 0.775 | – | -1.01 | -0.559
7640 kPa, x2 = 0.808 | -0.749 | -1.03 | -0.472
7640 kPa, x2 = 0.839 | – | – | -0.394
7640 kPa, x2 = 0.845 | – | -1.07 | –
7640 kPa, x2 = 0.868 | – | -0.985 | -0.326
7640 kPa, x2 = 0.878 | -0.814 | – | –
7640 kPa, x2 = 0.894 | – | – | -0.257
7640 kPa, x2 = 0.918 | – | -0.617 | -0.191
7640 kPa, x2 = 0.962 | – | – | -0.0853
7640 kPa, x2 = 0.97 | -0.848 | – | –
7640 kPa, x2 = 0.972 | -0.842 | – | –
7640 kPa, x2 = 0.985 | – | -0.153 | –
10000 kPa, x2 = 0.058 | – | -0.00359 | 0.00287
10000 kPa, x2 = 0.111 | 0.0136 | -0.00526 | –
10000 kPa, x2 = 0.136 | 0.0134 | -0.00741 | –
10000 kPa, x2 = 0.16 | – | – | -0.0208
10000 kPa, x2 = 0.207 | 0.0184 | -0.0117 | -0.0535
10000 kPa, x2 = 0.25 | 0.0182 | -0.0151 | -0.0853
10000 kPa, x2 = 0.29 | – | -0.0182 | -0.117
10000 kPa, x2 = 0.328 | 0.0194 | – | –
10000 kPa, x2 = 0.358 | – | – | -0.18
10000 kPa, x2 = 0.363 | – | -0.0294 | –
10000 kPa, x2 = 0.38 | – | -0.0392 | –
10000 kPa, x2 = 0.397 | 0.0146 | – | –
10000 kPa, x2 = 0.428 | 0.011 | -0.0416 | -0.248
10000 kPa, x2 = 0.486 | 0.0043 | – | -0.301
10000 kPa, x2 = 0.513 | – | -0.065 | –
10000 kPa, x2 = 0.526 | – | -0.0743 | –
10000 kPa, x2 = 0.538 | – | – | -0.357
10000 kPa, x2 = 0.548 | -0.00741 | – | –
10000 kPa, x2 = 0.562 | -0.00908 | -0.082 | -0.383
10000 kPa, x2 = 0.585 | – | – | -0.402
10000 kPa, x2 = 0.627 | – | -0.105 | -0.437
10000 kPa, x2 = 0.666 | -0.0354 | -0.118 | -0.473
10000 kPa, x2 = 0.71 | -0.0492 | -0.14 | –
10000 kPa, x2 = 0.75 | -0.0612 | -0.15 | -0.551
10000 kPa, x2 = 0.785 | -0.0746 | -0.173 | –
10000 kPa, x2 = 0.801 | – | – | -0.585
10000 kPa, x2 = 0.818 | -0.0903 | – | -0.604
10000 kPa, x2 = 0.875 | -0.105 | -0.198 | -0.627
10000 kPa, x2 = 0.923 | -0.105 | -0.199 | -0.612
10000 kPa, x2 = 0.94 | -0.0985 | – | –
10000 kPa, x2 = 0.964 | -0.0803 | -0.146 | –
10000 kPa, x2 = 0.972 | – | – | -0.41
10000 kPa, x2 = 0.983 | -0.0495 | – | –
10000 kPa, x2 = 0.986 | – | -0.0834 | -0.243
